The source of these data is patent US20070037887A1, “Blockade of mtor to prevent a hormonal adaptive response” (University of Virginia Patent Foundation, priority 2003, published 2007).

One test deals with mTOR-raptor complex. Nature of the test: Coimmunoprecipitation of raptor with mTOR, compound added to cell extracts or immune complexes. Particulars: caffeine 1 mM, LY294002 10 μM, rapamycin 1 μM plus FKBP12 10 μM, wortmannin 1 μM. It counts as binding. The method, then:
293T cells were transfected with pcDNA3 alone (Vec.) or with a combination of pcDNA3AU1-mTOR, pcDNA33HA-Raptor, and pcDNA33HA-mLST8. Extracts of the cells were incubated with increasing concentrations of FTS before AU1-mTOR was immunoprecipated. Samples of the immune complexes were incubated with [γ-^32P]ATP and recombinant [His^6]PHAS-I, then subjected to SDS-PAGE and transferred to an immobilon membrane. After obtaining a phosphorimage of the membrane to detect ^32P-PHAS-I, the membrane was immunoblotted with PThr^36/45 antibodies. Other samples of the immune complexes were subjected to SDS-PAGE and immunoblots were prepared with antibodies to the HA epitope or to mTOR (see FIG. 13A). Extracts of nontransfected 293T cells were incubated with increasing concentrations of FTS before mTOR was immunoprecipated with mTAb1. A control immunoprecipitation was conducted using nonimmune IgG (NI). Immune complexes were subjected to SDS-PAGE and immunoblots were prepared with antibodies to mLST8, mTOR, and raptor.
Samples of extracts from 293T cells overexpressing AU1-mTOR, HA-raptor, and HA-mLST8 were incubated for 1 h with increasing concentrations of FTS (●, ▴, ▪) or GTS (∘, Δ, □) before immunoprecipitations were conducted with anti-AU1 antibodies. mTOR kinase activity (●, ∘) was determined by measuring ^32P incorporation into [His^6]PHAS-I in immune complex kinases assays performed with [γ-^32P]ATP (see FIG. 14A). The relative amounts of HA-raptor (▴, Δ) and HA-mLST8 (▪, □) that coimmunoprecipitated with AU1-mTOR were determined after immunoblotting with anti-HA antibodies (see FIG. 14B). The results (mean values+S.E. from 5 experiments) are expressed as percentages of the mTOR activity (FIG. 14A) or coimmunoprecipitating proteins (FIG. 14B) from samples incubated without FTS or GTS, and have been corrected for the amounts of AU1-mTOR immunoprecipitated.
293T cells were transfected with pcDNA3 alone (Vec.) or with a combination of pcDNA3AU1-mTOR, pcDNA33HARaptor, and pcDNA33HA-mLST8. AU1-mTOR was immunoprecipitated and samples of the washed immune complexes were at incubated […] for 30 min with no inhibitors or with the following: caffeine (1 mM), FTS (50 μM), LY294002 (10 μM), rapamycin (1 μM) plus FKBP12 (10 μM), and 1 μM wortmannin. To prevent destruction of wortmannin, incubations were conducted in the absence of thiol reducing agents. Samples of the immune complexes were incubated for 10 min with 10 mM MnCl2, 1 mM [γ-^32P]ATP, and 50 μg/ml [His^6]PHAS-I to assess mTOR activity. Other samples were rinsed twice, subjected to SDS-PAGE, and immunoblotted with anti-HA and anti-AU1 antibodies to determine the amounts of HA-raptor and HA-mLST8 associated with AU1-mTOR. The relative amounts of ^32P incorporated into PHAS-I were determined by phosphorimaging (see FIG. 15B).

Test [1] has as its system hormone dependent breast cancer. To be noted: women responding initially to tamoxifen then relapsing, crossed over; cited from earlier work.
The next test relates to mTOR signaling. Particulars: in cells; cited from earlier work.
For test [2], the system named is LTED cells. Kind of test: [3H] thymidine incorporation into DNA, LTED cells. In kind it is cell-based, human. To be noted: inhibitors of the MAP kinase pathway. As for the experimental part:
FIGS. 5A & 5B represent the effect of FTS on DNA synthesis in MCF-7 (FIG. 5A) and LTED (FIG. 5B) cells. One hundred thousand cells were plated into each well of 24-well plates. Two days later, the cells were re-fed with IMEM containing 5% DCC-FBS. After another two days, cells were treated in quadruplicate with the compounds indicated for 18 hours. [^3H] thymidine (1 μCi/well) was added during the last 2 h of incubation. [^3H] thymidine incorporated into DNA was normalized by protein content.
The inhibitory effect of FTS on cell growth may be the result of inhibition of cellular proliferation, induction of apoptosis, or both. To determine the mechanism by which FTS inhibits cell growth, FTS's effect on DNA synthesis and apoptosis was investigated. […] Estradiol (10^−10 M) increased [^3H] thymidine incorporation by 2.6 fold compared to the control level in MCF-7 cells.
On the technique in general: Incorporation of labelled thymidine or its analogues reports DNA synthesis.

The next test has as its system MCF-7 cells. Nature of the test: Estradiol dose response of growth, wild type MCF-7 cells. In kind it is cell-based, human. To be noted: PD 98059 co-administered with TGF alpha. The method, then: (§1) As further evidence of the role of MAP kinase, PD 98059 was administered to LTED cells and its effect on level of sensitivity to estradiol was examined.
To investigate whether the MAP and P13 kinase pathways have a role in estradiol induced cell proliferation, the following experiments were conducted. […] Blockade of this effect was obtained with the MAPK inhibitor PD98059. Administration of TGF at a dose of 10 ng/ml caused a 2-log shift to the left in the ability of estradiol to stimulate the growth of wild-type MCF-7 cells. […] Dual inhibition of PI3K with LY40029 and MAPK with U0126 shifted the level of sensitivity to estradiol more dramatically, by more than 2 logs to the right. On the basis of these observations, it is believed that adaptive hypersensitivity involves the joint activation of the PI3K and MAPK pathways.

Test [3] deals with LTED cells. Kind of test: Estradiol dose response of growth (hypersensitivity), LTED cells. Particulars: PD 98059 alone. In kind it is cell-based, human.
Excerpt: During the phase when tamoxifen first begins to stimulate tumor growth, removal of tamoxifen and administration of very low doses of estradiol stimulates tumor growth. In marked contrast, wild type tumors not exposed to tamoxifen long term are not stimulated by such low doses of estradiol. Taken together, these experiments indicate that either estradiol deprivation or blockade of estrogen action with antiestrogens enhances the level of sensitivity to estrogens or to the estrogenic properties of tamoxifen. This phenomenon of adaptive hypersensitivity is believed to be responsible for the superiority of aromatase inhibitors over tamoxifen in a variety of clinical settings.
as §1
To investigate whether the MAP and P13 kinase pathways have a role in estradiol induced cell proliferation, the following experiments were conducted. […] Blockade of this effect was obtained with the MAPK inhibitor PD98059. Administration of TGF at a dose of 10 ng/ml caused a 2-log shift to the left in the ability of estradiol to stimulate the growth of wild-type MCF-7 cells. […] Dual inhibition of PI3K with LY40029 and MAPK with U0126 shifted the level of sensitivity to estradiol more dramatically, by more than 2 logs to the right. […]

For test [4], the system named is Shc. Kind of test: E2-induced Shc phosphorylation in MCF-7 cells. To be noted: 10^−10 M E2 for 3 minutes. It counts as cell-based, human. As for the experimental part: Because ERα, Shc and MAP kinase are all involved in E2 action in MCF-7 cells, upstream components responsible for Shc phosphorylation were determined by measuring the effects of PP2, ICI and PD98059 on E2-induced phosphorylation of Shc. In the presence of the inhibitors, MCF-7 cells were stimulated with vehicle or 10^−10 M E2 for 3 minutes and the status of Shc phosphorylation was examined. […] No effects of these inhibitors were apparent in the absence of E2 stimulation. […] Each of these inhibitors was capable of reducing the rate of cell proliferation in LTED cells.

Test [5] has as its system LTED cells. Nature of the test: Actin cytoskeleton (phalloidin staining) and ERα localization in LTED cells. In kind it is cell-based, human. Particulars: 10^−9 M. An excerpt:
It has been reported that cell mobility is controlled by a network of membrane initiated signals, such as activation of the Shc-Ras-MAPK pathway. Recently, it was reported that cell focal adhesions are highly dynamic structures. Cells can rapidly respond to the stimulation by growth factors and show reorganization of their cytoskeleton and cell shape. To examine E2 effects on reorganization of the actin cytoskeleton, the distribution of F-actin and also redistribution of the ERα localization in LTED and MCF-7 cells was determined by phalloidin staining. Untreated LTED cells expressed low actin polymerization and a few focal adhesion points. After E2 stimulation in contrast, the cytoskeleton underwent remodeling associated with formation of cellular ruffles, lamellipodias and leading edges, alterations of cell shape and loss of mature focal adhesion points. A subcellular redistribution of ERα to these dynamic membranes upon E2 stimulation represented another important feature of LTED cells. The ER antagonist ICI 182 780 at 10^−9 M blocked E2-induced ruffle formation as well as redistribution of ERα to the membrane with little effect by itself.

A further test deals with MAP kinase. Kind of test: MAP kinase activation in LTED cells. It counts as cell-based, human. As for the experimental part:
Upregulation of MAP kinase and PI-3-kinase could reflect either a constitutive activation of growth factor receptors, an increase in the endogenous secretion of growth factors, or other mechanisms. Inhibition of MAP kinase with a pure antiestrogen would rule out the possibility of constitutive activation of growth factor receptors or growth factor secretion. Accordingly, the pure anti-estrogen, faslodex (fulvestrant) was administered and the level of activation of MAP kinase in LTED cells was examined.
Estrogen deprivation might trigger activation of a non-genomic, estrogen regulated, MAP kinase pathway which utilizes Shc. […] The addition of E2 stimulated MAP kinase phosphorylation in LTED cells within minutes. The increased MAP kinase phosphorylation by E2 was time and dose-dependent being greatly stimulated at 15 min and remaining elevated for at least 30 min. Maximal stimulation of MAP kinase phosphorylation was at 10^−10 M of E2.

In test [6] the test system is Shc. Kind of test: Shc tyrosine phosphorylation in LTED cells. To be noted: at 3 min and 15 min respectively. It counts as cell-based, human. The method, then: Shc proteins are known to couple tyrosine kinase receptors to the MAPK pathway and activation of Shc involves the phosphorylation of SHC itself. To investigate if the Shc pathway was involved in the rapid action of estradiol in LTED cells, tyrosine phosphorylated proteins were immuno-precipitated and tested for the presence of Shc under E2 treatment. E2 rapidly stimulated Shc tyrosine phosphorylation in a dose and time dependent fashion with a peak at 3 minutes. The pure estrogen receptor antagonist, fulvestrant, blocked E2-induced Shc and MAPK phosphorylation at 3 min and 15 min respectively.

In the case of `Cn1c(=O)c2c(ncn2C)n(C)c1=O` [caffeine, reference compound], the “decrease of the association of AU1-mTOR and HA-raptor” value with mTOR-raptor complex is “little, if any, effect”.

Take `CCC1(c2ccc(N)cc2)CCC(=O)NC1=O` (stereo not drawn) [aminoglutethimide]: the “women with secondary clinical benefit” value in [1] is recorded as 50%.

Consider `CC[C@H](C)[C@@H](CO[C@@H](Cc1ccccc1)C(=O)N[C@@H](CCS(C)(=O)=O)C(=O)OC(C)C)NC[C@@H](N)CS` [L-744,832], for which the “time in which inhibition of mTOR signaling occurs” value in the test on mTOR signaling is at most 1.5 h.

With `COc1cccc(-c2cc(=O)c3ccccc3o2)c1N` [PD98059], the “incorporation of tritiated thymidine into DNA” value in the test with LTED cells [2] is listed as “block the incorporation”. The “TGF alpha induced left shift in estradiol dose response” value is “returned to baseline” in the test with MCF-7 cells and “returned back to baseline” with MCF-7 cells (listed as PD 98059). Also, the “shift to the right of estradiol dose response curves” value in the test with LTED cells [3] is reported as “approximately one-half log”. In addition, in the test on Shc [4], the “E2-induced Shc phosphorylation” value was “did not influence”.

On to `C[C@]12CC[C@@H]3c4ccc(O)cc4C[C@@H](CCCCCCCCC[S+]([O-])CCCC(F)(F)C(F)(F)F)[C@H]3[C@@H]1CC[C@@H]2O` (stereo partly drawn) [ICI 182 780], for which, in the test on Shc [4], the “E2-induced Shc phosphorylation” value is “effectively inhibited”. The “E2-induced ruffle formation and redistribution of ERα to the membrane” value with LTED cells [5] is “blocked”.

Take `C[C@]12CC[C@@H]3c4ccc(O)cc4C[C@@H](CCCCCCCCC[S+]([O-])CCCC(F)(F)C(F)(F)F)[C@H]3[C@@H]1CC[C@@H]2O` (stereo partly drawn) [fulvestrant]: the “level of activated MAP kinase” value with MAP kinase was “returned the level of activated MAP kinase back to the level seen in wild type MCF-7 cells”. Also, in the test on Shc [6], the “E2-induced Shc and MAPK phosphorylation” value was “blocked”.
